#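 96-well plates; 48 h exposure; 5 concentrations. Endpoints by linear interpolation between flanking doses. Not reached: highest tested concentration assigned. Abbreviation: GI50, concentration required for 50% inhibition of growth. TGI denotes the concentration required for complete inhibition of growth.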
# Tests used:
# Assay in all cases: DTP human tumour cell line panel, 48 h
# 786-0 renal = test system: 786-0 renal
# A498 renal = test system: A498 renal
# A549 NSCLC = test system: A549 NSCLC
# ACHN renal = test system: ACHN renal
# BT-549 breast = test system: BT-549 breast
# CAKI-1 renal = test system: CAKI-1 renal
# COLO 205 colon = test system: COLO 205 colon
# DU-145 prostate = test system: DU-145 prostate
# EKVX NSCLC = test system: EKVX NSCLC
# HCC-2998 colon = test system: HCC-2998 colon
# HCT-116 colon = test system: HCT-116 colon
# HCT-15 colon = test system: HCT-15 colon
# HL-60(TB) leukemia = test system: HL-60(TB) leukemia
# HOP-62 NSCLC = test system: HOP-62 NSCLC
# HOP-92 NSCLC = test system: HOP-92 NSCLC
# HS 578T breast = test system: HS 578T breast
# HT29 colon = test system: HT29 colon
# IGROV1 ovarian = test system: IGROV1 ovarian
# K-562 leukemia = test system: K-562 leukemia
# KM12 colon = test system: KM12 colon
# LOX IMVI melanoma = test system: LOX IMVI melanoma
# M14 melanoma = test system: M14 melanoma
# MALME-3M melanoma = test system: MALME-3M melanoma
# MDA-MB-231 breast = test system: MDA-MB-231 breast
# MDA-MB-435 = test system: MDA-MB-435
# MOLT-4 leukemia = test system: MOLT-4 leukemia
# NCI-H226 lung = test system: NCI-H226 lung
# NCI-H23 lung = test system: NCI-H23 lung
# NCI-H460 lung = test system: NCI-H460 lung
# NCI/ADR-RES ovarian = test system: NCI/ADR-RES ovarian
# OVCAR-3 ovarian = test system: OVCAR-3 ovarian
# OVCAR-4 ovarian = test system: OVCAR-4 ovarian
# OVCAR-5 ovarian = test system: OVCAR-5 ovarian
# OVCAR-8 ovarian = test system: OVCAR-8 ovarian
# PC-3 prostate = test system: PC-3 prostate
# RXF 393 renal = test system: RXF 393 renal
# SF-268 CNS = test system: SF-268 CNS
# SF-295 CNS = test system: SF-295 CNS
# SF-539 CNS = test system: SF-539 CNS
# SK-MEL-2 melanoma = test system: SK-MEL-2 melanoma
# SK-MEL-28 melanoma = test system: SK-MEL-28 melanoma
# SK-MEL-5 melanoma = test system: SK-MEL-5 melanoma
# SK-OV-3 ovarian = test system: SK-OV-3 ovarian
# SN12C renal = test system: SN12C renal
# SNB-19 CNS = test system: SNB-19 CNS
# SNB-75 CNS = test system: SNB-75 CNS
# SW-620 colon = test system: SW-620 colon
# T-47D breast = test system: T-47D breast
# TK-10 renal = test system: TK-10 renal
# U251 CNS = test system: U251 CNS
# UACC-257 melanoma = test system: UACC-257 melanoma
# UACC-62 melanoma = test system: UACC-62 melanoma
# UO-31 renal = test system: UO-31 renal
# CCRF-CEM leukemia = test system: CCRF-CEM leukemia
# MCF7 breast = test system: MCF7 breast
# NCI-H522 lung = test system: NCI-H522 lung
# RPMI-8226 leukemia = test system: RPMI-8226 leukemia
# SR leukemia = test system: SR leukemia
smiles,measurement,setting,value
CN1CCN(c2ccc(NC3=C(Cl)C(=O)c4ncccc4C3=O)cc2C#N)CC1,GI50,786-0 renal,1.72 µM
same,TGI,786-0 renal,3.23 µM
same,GI50,A498 renal,11.7 µM
same,TGI,A498 renal,25.3 µM
same,GI50,A549 NSCLC,17.4 µM
same,TGI,A549 NSCLC,33.7 µM
same,GI50,ACHN renal,1.15 µM
same,TGI,ACHN renal,2.36 µM
same,GI50,BT-549 breast,2.25 µM
same,TGI,BT-549 breast,5.95 µM
same,GI50,CAKI-1 renal,1.09 µM
same,TGI,CAKI-1 renal,2.31 µM
same,GI50,COLO 205 colon,2.06 µM
same,TGI,COLO 205 colon,4.51 µM
same,GI50,DU-145 prostate,2.99 µM
same,TGI,DU-145 prostate,15.5 µM
same,GI50,EKVX NSCLC,2.78 µM
same,TGI,EKVX NSCLC,8.72 µM
same,GI50,HCC-2998 colon,2.34 µM
same,TGI,HCC-2998 colon,7.03 µM
same,GI50,HCT-116 colon,1.72 µM
same,TGI,HCT-116 colon,3.36 µM
same,GI50,HCT-15 colon,1.64 µM
same,TGI,HCT-15 colon,3.53 µM
same,GI50,HL-60(TB) leukemia,0.316 µM
same,TGI,HL-60(TB) leukemia,1.24 µM
same,GI50,HOP-62 NSCLC,11.8 µM
same,TGI,HOP-62 NSCLC,34.7 µM
same,GI50,HOP-92 NSCLC,1.82 µM
same,TGI,HOP-92 NSCLC,3.45 µM
same,GI50,HS 578T breast,2.14 µM
same,TGI,HS 578T breast,5.47 µM
same,GI50,HT29 colon,2.16 µM
same,TGI,HT29 colon,5.14 µM
same,GI50,IGROV1 ovarian,1.34 µM
same,TGI,IGROV1 ovarian,2.82 µM
same,GI50,K-562 leukemia,0.312 µM
same,TGI,K-562 leukemia,> 100 µM
same,GI50,KM12 colon,10.8 µM
same,TGI,KM12 colon,25.4 µM
same,GI50,LOX IMVI melanoma,1.51 µM
same,TGI,LOX IMVI melanoma,3.19 µM
same,GI50,M14 melanoma,1.74 µM
same,TGI,M14 melanoma,3.57 µM
same,GI50,MALME-3M melanoma,1.47 µM
same,TGI,MALME-3M melanoma,2.81 µM
same,GI50,MDA-MB-231 breast,1.57 µM
same,TGI,MDA-MB-231 breast,4.17 µM
same,GI50,MDA-MB-435,1.91 µM
same,TGI,MDA-MB-435,3.67 µM
same,GI50,MOLT-4 leukemia,1.04 µM
same,TGI,MOLT-4 leukemia,5.31 µM
same,GI50,NCI-H226 lung,16.8 µM
same,TGI,NCI-H226 lung,36.3 µM
same,GI50,NCI-H23 lung,2.15 µM
same,TGI,NCI-H23 lung,6.22 µM
same,GI50,NCI-H460 lung,13 µM
same,TGI,NCI-H460 lung,30.9 µM
same,GI50,NCI/ADR-RES ovarian,4.56 µM
same,TGI,NCI/ADR-RES ovarian,24.3 µM
same,GI50,OVCAR-3 ovarian,0.229 µM
same,TGI,OVCAR-3 ovarian,1 µM
same,GI50,OVCAR-4 ovarian,1.09 µM
same,TGI,OVCAR-4 ovarian,2.36 µM
same,GI50,OVCAR-5 ovarian,2.75 µM
same,TGI,OVCAR-5 ovarian,7.3 µM
same,GI50,OVCAR-8 ovarian,2.59 µM
same,TGI,OVCAR-8 ovarian,9.37 µM
same,GI50,PC-3 prostate,2.29 µM
same,TGI,PC-3 prostate,9.34 µM
same,GI50,RXF 393 renal,1.4 µM
same,TGI,RXF 393 renal,2.73 µM
same,GI50,SF-268 CNS,2.09 µM
same,TGI,SF-268 CNS,5.27 µM
same,GI50,SF-295 CNS,15 µM
same,TGI,SF-295 CNS,28.8 µM
same,GI50,SF-539 CNS,4.44 µM
same,TGI,SF-539 CNS,15 µM
same,GI50,SK-MEL-2 melanoma,2.26 µM
same,TGI,SK-MEL-2 melanoma,4.69 µM
same,GI50,SK-MEL-28 melanoma,1.86 µM
same,TGI,SK-MEL-28 melanoma,3.26 µM
same,GI50,SK-MEL-5 melanoma,1.83 µM
same,TGI,SK-MEL-5 melanoma,3.38 µM
same,GI50,SK-OV-3 ovarian,13.8 µM
same,TGI,SK-OV-3 ovarian,27.5 µM
same,GI50,SN12C renal,1.55 µM
same,TGI,SN12C renal,3.25 µM
same,GI50,SNB-19 CNS,11 µM
same,TGI,SNB-19 CNS,23 µM
same,GI50,SNB-75 CNS,11.7 µM
same,TGI,SNB-75 CNS,24.8 µM
same,GI50,SW-620 colon,1.49 µM
same,TGI,SW-620 colon,3.62 µM
same,GI50,T-47D breast,1.76 µM
same,TGI,T-47D breast,5.26 µM
same,GI50,TK-10 renal,2.09 µM
same,TGI,TK-10 renal,4.24 µM
same,GI50,U251 CNS,2.01 µM
same,TGI,U251 CNS,4.44 µM
same,GI50,UACC-257 melanoma,1.73 µM
same,TGI,UACC-257 melanoma,3.29 µM
same,GI50,UACC-62 melanoma,1.78 µM
same,TGI,UACC-62 melanoma,3.61 µM
same,GI50,UO-31 renal,1.34 µM
same,TGI,UO-31 renal,2.61 µM
CC1CN=C(NS(=O)(=O)c2cc(C(=O)Nc3ccc(F)cc3)c(Cl)cc2S)NN1 (centres undefined),TGI,786-0 renal,> 100 µM
same,TGI,A498 renal,64.1 µM
same,TGI,A549 NSCLC,> 100 µM
same,TGI,ACHN renal,> 100 µM
same,TGI,BT-549 breast,> 100 µM
same,TGI,CAKI-1 renal,> 100 µM
same,TGI,CCRF-CEM leukemia,> 100 µM
same,TGI,COLO 205 colon,> 100 µM
same,TGI,DU-145 prostate,> 100 µM
same,TGI,EKVX NSCLC,> 100 µM
same,TGI,HCC-2998 colon,> 100 µM
same,TGI,HCT-116 colon,> 100 µM
same,TGI,HCT-15 colon,> 100 µM
same,TGI,HL-60(TB) leukemia,> 100 µM
same,TGI,HOP-62 NSCLC,> 100 µM
same,TGI,HT29 colon,> 100 µM
same,TGI,IGROV1 ovarian,> 100 µM
same,TGI,K-562 leukemia,> 100 µM
same,TGI,KM12 colon,> 100 µM
same,TGI,LOX IMVI melanoma,> 100 µM
same,TGI,M14 melanoma,> 100 µM
same,TGI,MALME-3M melanoma,70.1 µM
same,TGI,MCF7 breast,> 100 µM
same,TGI,MDA-MB-231 breast,> 100 µM
same,TGI,MDA-MB-435,> 100 µM
same,TGI,MOLT-4 leukemia,> 100 µM
same,TGI,NCI-H226 lung,> 100 µM
same,TGI,NCI-H23 lung,> 100 µM
same,TGI,NCI-H460 lung,> 100 µM
same,TGI,NCI-H522 lung,94.2 µM
same,TGI,NCI/ADR-RES ovarian,> 100 µM
same,TGI,OVCAR-3 ovarian,> 100 µM
same,TGI,OVCAR-4 ovarian,> 100 µM
same,TGI,OVCAR-5 ovarian,> 100 µM
same,TGI,OVCAR-8 ovarian,> 100 µM
same,TGI,PC-3 prostate,> 100 µM
same,TGI,RPMI-8226 leukemia,> 100 µM
same,TGI,SF-268 CNS,> 100 µM
same,TGI,SF-295 CNS,> 100 µM
same,TGI,SF-539 CNS,> 100 µM
same,TGI,SK-MEL-2 melanoma,76.7 µM
same,TGI,SK-MEL-28 melanoma,> 100 µM
same,TGI,SK-MEL-5 melanoma,> 100 µM
same,TGI,SK-OV-3 ovarian,> 100 µM
same,TGI,SN12C renal,> 100 µM
same,TGI,SNB-19 CNS,> 100 µM
same,TGI,SR leukemia,> 100 µM
same,TGI,SW-620 colon,> 100 µM
same,TGI,TK-10 renal,> 100 µM
same,TGI,U251 CNS,> 100 µM
same,TGI,UACC-257 melanoma,> 100 µM
same,TGI,UACC-62 melanoma,> 100 µM
same,TGI,UO-31 renal,> 100 µM

# — PubChem BioAssay (NCI)
